Here are results for 19 molecules from article PMC7119052 (Bioorganic & Medicinal Chemistry, 2005).

SMILES strings stand for the structures.

Test [1] has as its target T1, CypA (Homo sapiens, UniProt P62937). The test can be described thus: SPR-based binding affinity assay. As to conditions: pH 7.4.
Test [2] concerns the target T1, CypA. Briefly: biochemical.
Test [3] concerns mouse spleen cells induced by Con A. Briefly: Proliferation of mouse spleen cells induced by Con A. The format is cell-based. The note with it: 72 h, read-out: Inhibitory rate (%).

T1 sequence (P62937 whole entry): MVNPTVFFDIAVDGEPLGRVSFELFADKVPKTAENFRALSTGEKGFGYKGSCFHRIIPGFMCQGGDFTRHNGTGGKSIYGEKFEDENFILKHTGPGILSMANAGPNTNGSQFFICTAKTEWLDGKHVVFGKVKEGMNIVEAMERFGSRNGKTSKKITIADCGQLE

For `O=C(Nc1ccc(S(=O)(=O)Nc2cnc3ccccc3n2)cc1)c1ccccc1` [Compound 17b, 4-Benzamido-N-quinoxalin-2-yl benzenesulfonamide], the Kd (commonly the equilibrium constant for the complex coming apart) at CypA [1] stood at 23.4 µM. Also, the % inhibition (commonly the relative decrease from the control value, in per cent) at 10 μM on CypA [2] is given as 5.6%.

For `Cc1noc(NS(=O)(=O)c2ccc(NC(=O)Cc3ccc(Cl)cc3)cc2)c1C` [Compound 17d, 4-(4-Chlorophenylacetamido)-N-(3,4-dimethyl-isoxazol-5-yl) benzenesulfonamide], binding on CypA [1] was characterised by a dissociation constant (Kd) of 0.35 µM.

Regarding `Cc1noc(NS(=O)(=O)c2ccc(NC(=O)c3cc(-c4ccncc4)nc4ccccc34)cc2)c1C` [Compound 16e, 4-(2-Pyridin-4-yl-quinoline-4-carboxamido)-N-(3,4-dimethyl-isoxazol-5-yl) benzenesulfonamide], the Kd on CypA [1] was 10.6 µM. Besides, on CypA [2], the “% inhibition at 10 μM” value is on record as 40.0%.

As to `O=C(Nc1ccc(S(=O)(=O)Nc2cnc3ccccc3n2)cc1)c1cc(-c2cccc(Br)c2)nc2ccccc12` [Compound 16j, 4-(2-(3-Bromophenyl)-quinoline-4-carboxamido)-N-quinoxalin-2-yl benzenesulfonamide], the Kd at CypA [1] came to 3.13 µM. The “% inhibition at 10 μM” value on CypA [2] amounted to 36.0%.

As to `COC(=O)c1cc(Cc2ccc(NCc3ccccc3)c(C(=O)OC)c2)ccc1NCc1ccccc1` [Compound 18g, 6,6′-Bis-benzylamino-3,3′-methanediyl-di-benzoic acid dimethyl ester], in test [3], the inhibition at 1 µM amounted to 1.2 ± 6.41%, the inhibition at 10 µM was 7.46 ± 4.13% and the inhibition at 100 µM was determined as 28.8 ± 3.39%. In addition, the IC50 (in general, the midpoint of a concentration-inhibition curve) on CypA [2] was 6.23 µM.

With `Cc1noc(NS(=O)(=O)c2ccc(NC(=O)c3cc(-c4cccc(Br)c4)nc4ccc(F)cc34)cc2)c1C` [Compound 16i, 4-(2-(3-Bromophenyl)-6-fluoro-quinoline-4-carboxamido)-N-(3,4-dimethyl-isoxazol-5-yl) benzenesulfonamide], at CypA [1], the affinity, expressed as Kd, was 2.25 µM. Further, the “% inhibition at 10 μM” value at CypA [2] is given as 32.0%.

In the case of `O=C(Cc1ccc(Cl)cc1Cl)Nc1ccc(S(=O)(=O)Nc2cnc3ccccc3n2)cc1` [Compound 17a, 4-(2,4-Dichlorophenylacetamido)-N-quinoxalin-2-yl benzenesulfonamide], the equilibrium dissociation constant (Kd) at CypA [1] was 37.7 µM.

On CypA [1], `Cc1noc(NS(=O)(=O)c2ccc(NC(=O)c3cc(C4CCCCC4)nc4ccccc34)cc2)c1C` [Compound 16g, 4-(2-Cyclohexanyl-quinoline-4-carboxamido)-N-(3,4-dimethyl-isoxazol-5-yl) benzenesulfonamide] yielded a dissociation constant (Kd) of 1.79 µM.

Take `O=C(CCc1ccccc1)Nc1ccc(S(=O)(=O)Nc2cnc3ccccc3n2)cc1` [Compound 17c, 4-(3-Phenyl-propionamido)-N-quinoxalin-2-yl benzenesulfonamide]: the Kd at CypA [1] is 1.06 µM.

`Cc1noc(NS(=O)(=O)c2ccc(NC(=O)c3ccnc(-c4ccccc4)c3)cc2)c1C` [Compound 16m, 4-(2-Phenyl-pyridine-4-carboxamido)-N-(3,4-dimethyl-isoxazol-5-yl) benzenesulfonamide] registered a dissociation constant (Kd) on CypA [1] of 14.5 µM.

On CypA [1], `Cc1noc(NS(=O)(=O)c2ccc(NC(=O)c3cc(-c4cccs4)nc4ccccc34)cc2)c1C` [Compound 16f, 4-(2-Thiophen-2-yl-quinoline-4-carboxamido)-N-(3,4-dimethyl-isoxazol-5-yl) benzenesulfonamide] yielded a Kd of 91.3 µM. For the same molecule, the “% inhibition at 10 μM” value at CypA [2] is 30.0%.

On to `Cc1noc(NS(=O)(=O)c2ccc(NC(=O)c3cc(-c4cccc(F)c4)nc4ccccc34)cc2)c1C` [Compound 16a, 4-(2-(3-Fluorophenyl)-quinoline-4-carboxamido)-N-(3,4-dimethyl-isoxazol-5-yl) benzenesulfonamide], for which the dissociation constant (Kd) at CypA [1] was found to be 10.2 µM. The “% inhibition at 10 μM” value at CypA [2] was 18.0%.

`Cc1noc(NS(=O)(=O)c2ccc(NC(=O)c3cc(-c4ccccc4Br)nc4ccccc34)cc2)c1C` [Compound 16d, 4-(2-(2-Bromophenyl)-quinoline-4-carboxamido)-N-(3,4-dimethyl-isoxazol-5-yl) benzenesulfonamide] registered a Kd on CypA [1] of 223 µM. Also, the “% inhibition at 10 μM” value at CypA [2] amounted to 15.0%.

In turn, `Cc1ccccc1-c1cc(C(=O)Nc2ccc(S(=O)(=O)Nc3onc(C)c3C)cc2)ccn1` [Compound 16p, 4-(2-(2-Methylphenyl)-pyridine-4-carboxamido)-N-(3,4-dimethyl-isoxazol-5-yl) benzenesulfonamide] displayed a Kd at CypA [1] of 7.61 µM.

For `Cc1noc(NS(=O)(=O)c2ccc(NC(=O)c3ccnc(-c4ccc(F)cc4)c3)cc2)c1C` [Compound 16o, 4-(2-(4-Fluorophenyl)-pyridine-4-carboxamido)-N-(3,4-dimethyl-isoxazol-5-yl) benzenesulfonamide], on CypA [1], the affinity, expressed as Kd, was 42.4 µM. Further, the “% inhibition at 10 μM” value at CypA [2] turned out to be 26.0%.

In the case of `Cc1noc(NS(=O)(=O)c2ccc(NC(=O)c3ccnc(-c4ccc(Br)cc4)c3)cc2)c1C` [Compound 16l, 4-(2-(4-Bromophenyl)-pyridine-4-carboxamido)-N-(3,4-dimethyl-isoxazol-5-yl) benzenesulfonamide], the Kd on CypA [1] is 89.5 µM.

As to `Cc1noc(NS(=O)(=O)c2ccc(NC(=O)c3cc(-c4ccc(Br)cc4)nc4ccccc34)cc2)c1C` [Compound 16c, 4-(2-(4-Bromophenyl)-quinoline-4-carboxamido)-N-(3,4-dimethyl-isoxazol-5-yl) benzenesulfonamide], the dissociation constant (Kd) on CypA [1] was 4.11 µM. Also, the “% inhibition at 10 μM” value on CypA [2] came to 10.0%.

As to `Cc1noc(NS(=O)(=O)c2ccc(NC(=O)c3ccnc(-c4ccc(Cl)cc4)c3)cc2)c1C` [Compound 16n, 4-(2-(4-Chlorophenyl)-pyridine-4-carboxamido)-N-(3,4-dimethyl-isoxazol-5-yl) benzenesulfonamide], binding on CypA [1] was put at a Kd of 1.86 µM.

In turn, `Cc1ccnc(NS(=O)(=O)c2ccc(NC(=O)c3ccnc(-c4ccccc4C)c3)cc2)n1` [Compound 16q, 4-(2-(2-Methylphenyl)-pyridine-4-carboxamido)-N-(4-methyl-pyrimidin-2-yl) benzenesulfonamide] gave a Kd at CypA [1] of 340 µM.
